Reference: patent US20050113450A1, “Antibacterial agents” (priority 2002, published 2005)
Values after ≈ are worked out from the molar mass of the structure shown.

tested on: SA 9218; assay: MIC by standard agar dilution method; format: cell-based; details: Mueller Hinton agar, 10^4 to 10^5 cells per spot, incubated overnight at 35° C., lowest concentration that inhibits visible growth
Method in brief: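 MIC read after overnight 35 °C incubation as lowest drug level preventing visible growth. Inoculum of roughly 10^4–10^5 cells per spot (0.5 McFarland, 1:20 in TSB) applied to Mueller Hinton agar containing serial 2-fold compound dilutions.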

| Structure (SMILES) | SA 9218 MIC [µg/mL] | MIC [µg/mL] |
| --- | --- | --- |
| CC(C(O)c1ccccc1)N(C)S(=O)(=O)c1cccc(C(=O)Nc2ccc(C#N)cc2C(=O)O)c1 (centres unmarked) [PHA-571272] | 32 |  |
| O=C1CCC(COc2cccc(C(=O)Nc3ccc(Br)cc3C(=O)O)c2)N1 (centres unmarked) [PHA-571280] | >128 |  |
| O=C1CCC(COc2cccc(C(=O)Nc3ccc(Br)cc3C(=O)O)c2)N1 (centres unmarked) [PHA-571281] |  | 128 (≈ 295 µM) |
| COc1cc(COc2cccc(C(=O)Nc3ccc(Br)cc3C(=O)O)c2)ccc1[N+](=O)[O-] [PHA-571282] |  | 16 (≈ 31.9 µM) |
| COC(=O)c1ccc(COc2cccc(C(=O)Nc3ccc(Br)cc3C(=O)O)c2)cc1 [PHA-571283] |  | 16 (≈ 33 µM) |
| O=C(Nc1ccc(Br)cc1C(=O)O)c1cccc(OC2CCOC2=O)c1 (centres unmarked) [PHA-571285] |  | 64 (≈ 152 µM) |
| CCOC(=O)C1CCC(Oc2cccc(C(=O)Nc3ccc(Br)cc3C(=O)O)c2)CC1 (centres unmarked) [PHA-571289] |  | 32 (≈ 65.3 µM) |
| C=CCC(CC=C)Oc1ccc(C(=O)Nc2ccc(Br)cc2C(=O)O)cc1 [PHA-571292] |  | 32 (≈ 74.4 µM) |
| O=C(Nc1ccc(-c2ccc(C(F)(F)F)cc2)cc1C(=O)O)c1cccc(S(=O)(=O)N2CCOCC2)c1 [PHA-610940] |  | > 128 |
| COc1ccc(-c2ccc(NC(=O)c3cccc(S(=O)(=O)N4CCOCC4)c3)c(C(=O)O)c2)cc1 [PHA-610941] |  | > 128 |
| O=C(Nc1ccc(-c2ccccc2)cc1C(=O)O)c1cccc(S(=O)(=O)N2CCOCC2)c1 [PHA-610942] |  | > 128 |
| N#Cc1ccc(NC(=O)c2cccc(S(=O)(=O)C3CCCC3)c2)c(C(=O)O)c1 [PHA-630426] |  | > 128 |
| N#Cc1ccc(NC(=O)c2cccc(S(=O)(=O)NC3CCc4ccccc43)c2)c(C(=O)O)c1 (centres unmarked) [PHA-656807] |  | 64 (≈ 139 µM) |
| N#Cc1ccc(NC(=O)c2cccc(S(=O)(=O)N(CCO)Cc3ccccc3)c2)c(C(=O)O)c1 [PHA-656808] |  | 64 (≈ 133 µM) |
| CN(CC(O)c1ccccc1)S(=O)(=O)c1ccc(C(=O)Nc2ccc(C#N)cc2C(=O)O)cc1 (centres unmarked) [PHA-656809] |  | 64 (≈ 133 µM) |
| CC(C)CN(CC(C)C)S(=O)(=O)c1ccc(C(=O)Nc2ccc(C#N)cc2C(=O)O)cc1 [PHA-656811] |  | 32 (≈ 69.9 µM) |
| O=C(Nc1ccc(-c2ccc(Cl)cc2)cc1C(=O)O)c1cccc(S(=O)(=O)N2CCOCC2)c1 [PHA-656820] |  | > 128 |
| CCCCN(CCO)S(=O)(=O)c1cccc(C(=O)Nc2ccc(C#N)cc2C(=O)O)c1 [PHA-656859] |  | 16 (≈ 35.9 µM) |
| N#Cc1ccc(NC(=O)c2cccc(S(=O)(=O)Nc3ccc4c(c3)CCC4)c2)c(C(=O)O)c1 [PHA-656860] |  | 8 (≈ 17.3 µM) |
| CN(CCC(O)c1ccccc1)S(=O)(=O)c1ccc(C(=O)Nc2ccc(C#N)cc2C(=O)O)cc1 (centres unmarked) [PHA-656861] |  | 32 (≈ 64.8 µM) |
| N#Cc1ccc(NC(=O)c2ccc(S(=O)(=O)N(CCO)Cc3ccccc3)cc2)c(C(=O)O)c1 [PHA-656862] |  | 32 (≈ 66.7 µM) |
| N#Cc1ccc(NC(=O)c2cccc(S(=O)(=O)N3CCCC3CO)c2)c(C(=O)O)c1 (centres unmarked) [PHA-656863] |  | 8 (≈ 18.6 µM) |
| N#Cc1ccc(NC(=O)c2ccc(S(=O)(=O)NC3CCc4ccccc43)cc2)c(C(=O)O)c1 (centres unmarked) [PHA-656866] |  | > 128 |
| CCCCN(CCO)S(=O)(=O)c1ccc(C(=O)Nc2ccc(C#N)cc2C(=O)O)cc1 [PHA-656867] |  | 64 (≈ 144 µM) |
| N#Cc1ccc(NC(=O)c2ccc(S(=O)(=O)N3CCCC3CO)cc2)c(C(=O)O)c1 (centres unmarked) [PHA-656868] |  | > 128 |

| Structure (SMILES) | SA 9218 MIC [µg/mL] | MIC [µg/mL] |
| --- | --- | --- |
| C=CCN(C1CCCC1)S(=O)(=O)c1cccc(C(=O)Nc2ccc(C#N)cc2C(=O)O)c1 [PHA-656870] |  | 8 (≈ 17.6 µM) |
| CC1CCCN1S(=O)(=O)c1ccc(C(=O)Nc2ccc(C#N)cc2C(=O)O)cc1 (centres unmarked) [PHA-656871] |  | 128 (≈ 310 µM) |
| CN(CCc1ccccn1)S(=O)(=O)c1cccc(C(=O)Nc2ccc(C#N)cc2C(=O)O)c1 [PHA-656872] |  | > 128 |
| O=C(Nc1ccc(Cl)cc1C(=O)O)c1cccc(C(=O)c2ccc3ccccc3n2)c1 [PHA-656880] |  | 16 (≈ 37.1 µM) |
| O=C(COc1ccccc1)c1cccc(C(=O)Nc2ccc(Cl)cc2C(=O)O)c1 [PHA-656882] |  | 16 (≈ 39 µM) |
| COC(=O)c1cccc(C(=O)c2ccc(C(=O)Nc3ccc(Cl)cc3C(=O)O)cc2)c1 [PHA-656883] |  | 16 (≈ 36.5 µM) |
| CC(C)C(=O)c1cccc(C(=O)Nc2ccc(Cl)cc2C(=O)O)c1 [PHA-656884] |  | 16 (≈ 46.3 µM) |
| COc1ccccc1C(=O)c1cccc(C(=O)Nc2ccc(Cl)cc2C(=O)O)c1 [PHA-656885] |  | 16 (≈ 39 µM) |
| COC(=O)c1cccc(C(=O)c2cccc(C(=O)Nc3ccc(Cl)cc3C(=O)O)c2)c1 [PHA-656886] |  | 16 (≈ 36.5 µM) |
| O=C(Nc1ccc(Cl)cc1C(=O)O)c1cccc(C(=O)c2cccs2)c1 [PHA-656887] |  | 8 (≈ 20.7 µM) |
| O=C(Nc1ccc(Cl)cc1C(=O)O)c1cccc(C(=O)C2CCC2)c1 [PHA-656888] |  | 16 (≈ 44.7 µM) |
| CC(C)(C)CC(=O)c1cccc(C(=O)Nc2ccc(Cl)cc2C(=O)O)c1 [PHA-656889] |  | 16 (≈ 42.8 µM) |
| O=C(Nc1ccc(Cl)cc1C(=O)O)c1cccc(C(=O)C2CC2)c1 [PHA-656890] |  | 16 (≈ 46.5 µM) |
| O=C(CCC1CCCC1)c1cccc(C(=O)Nc2ccc(Cl)cc2C(=O)O)c1 [PHA-656891] |  | 16 (≈ 40 µM) |
| O=C(Nc1ccc(Cl)cc1C(=O)O)c1cccc(C(=O)c2ccc(F)c(F)c2)c1 [PHA-656892] |  | 8 (≈ 19.2 µM) |
| O=C(Nc1ccc(Cl)cc1C(=O)O)c1cccc(C(=O)c2cc(F)cc(F)c2)c1 [PHA-656893] |  | 8 (≈ 19.2 µM) |
| Cc1cccc(C(=O)c2cccc(C(=O)Nc3ccc(Cl)cc3C(=O)O)c2)c1 [PHA-656894] |  | 16 (≈ 40.6 µM) |
| N#Cc1ccc(NC(=O)c2cccc(C(=O)N3CCOCC3)c2)c(C(=O)O)c1 [PHA-662412] |  | 64 (≈ 169 µM) |
| N#Cc1ccc(NC(=O)c2cccc(S(=O)(=O)N3CCOCC3)c2)c(C(=O)O)c1 [PHA-662951] | 32 |  |
| O=Cc1ccc(NC(=O)c2cccc(S(=O)(=O)N3CCOCC3)c2)c(C(=O)O)c1 [PHA-666124] |  | 32 (≈ 76.5 µM) |
| O=C(Nc1ccc(/C=N/O)cc1C(=O)O)c1cccc(S(=O)(=O)N2CCOCC2)c1 [PHA-679756] |  | > 128 |
| CO/N=C/c1ccc(NC(=O)c2cccc(S(=O)(=O)N3CCOCC3)c2)c(C(=O)O)c1 [PHA-679759] |  | > 128 |
| CO/N=C/c1ccc(NC(=O)c2cccc(S(=O)(=O)N3CCc4cc(Cl)ccc43)c2)c(C(=O)O)c1 [PHA-682996] |  | 64 (≈ 125 µM) |
| O=C(Nc1ccc(C#CCO)cc1C(=O)O)c1cccc(S(=O)(=O)N2CCc3ccccc32)c1 [PHA-687570] |  | 128 (≈ 269 µM) |

Continued by falling MIC, values first:

| SA 9218 MIC [µg/mL] | MIC [µg/mL] | Structure (SMILES) |
| --- | --- | --- |
|  | 8 (≈ 18.7 µM) | CC1CCN(S(=O)(=O)c2cccc(C(=O)Nc3ccc(C#N)cc3C(=O)O)c2)CC1 [PHA-571273] |
|  | 4 (≈ 9.41 µM) | O=C(Nc1ccc(Cl)cc1C(=O)O)c1cccc(S(=O)(=O)N2CCOCC2)c1 [PHA-571395] |
|  | 4 (≈ 8.52 µM) | O=C(Nc1ccc(Br)cc1C(=O)O)c1cccc(S(=O)(=O)N2CCOCC2)c1 [PHA-571396] |
|  | 4 (≈ 9.19 µM) | O=C(Nc1ccc([N+](=O)[O-])cc1C(=O)O)c1cccc(S(=O)(=O)N2CCOCC2)c1 [PHA-571397] |
|  | 4 (≈ 7.75 µM) | O=C(Nc1ccc(I)cc1C(=O)O)c1cccc(S(=O)(=O)N2CCOCC2)c1 [PHA-571458] |
|  | 4 (≈ 10.5 µM) | N#Cc1ccc(NC(=O)c2cccc([S+]([O-])C3CCCC3)c2)c(C(=O)O)c1 (centres unmarked) [PHA-630427] |
|  | 4 (≈ 10.2 µM) | CC(C)(C)N1C(=O)c2ccc(C(=O)Nc3ccc(C#N)cc3C(=O)O)cc2C1=O [PHA-630726] |
|  | 4 (≈ 9.67 µM) | N#Cc1ccc(NC(=O)c2cccc(CS(=O)(=O)N3CCCC3)c2)c(C(=O)O)c1 [PHA-630852, 5-cyano-2-({3-[(1-pyrrolidinylsulfonyl)methyl]benzoyl}amino)benzoic acid] |
|  | 4 (≈ 8.98 µM) | CC(C)(C)N1C(=O)c2ccc(C(=O)Nc3ccc(Br)cc3C(=O)O)cc2C1=O [PHA-630989] |
|  | 4 (≈ 8.49 µM) | Cc1cc(C(=O)Nc2ccc(Cl)cc2C(=O)O)cc(S(=O)(=O)N2CCc3ccccc32)c1 [PHA-664658] |
|  | 4 (≈ 8 µM) | O=C(Nc1ccc(/C=N/O)cc1C(=O)O)c1cccc(S(=O)(=O)N2CCc3cc(Cl)ccc32)c1 [PHA-686834] |
|  | 4 (≈ 8.35 µM) | N#Cc1ccc(C2CC2c2cccc(S(=O)(=O)N3CCc4cc(Cl)ccc43)c2)c(C(=O)O)c1 (centres unmarked) [PHA-687511] |
|  | 4 (≈ 8.43 µM) | O=C(O)c1cc(Cl)ccc1/C=C/c1cccc(S(=O)(=O)N2CCc3cc(Cl)ccc32)c1 [PHA-707801] |
|  | 2 (≈ 3.6 µM) | CC(C)(C)OC(=O)NC(COc1cccc(C(=O)Nc2ccc(Br)cc2C(=O)O)c1)c1ccccc1 (centres unmarked) [PHA-571287] |
|  | 2 (≈ 4 µM) | O=C(Nc1ccc(Br)cc1C(=O)O)c1cccc(S(=O)(=O)n2ccc3cccnc32)c1 [PHA-630331] |
|  | 2 (≈ 3.73 µM) | N#Cc1ccc(NC(=O)c2cccc(S(=O)(=O)N3CCN(c4ccc([N+](=O)[O-])cc4)CC3)c2)c(C(=O)O)c1 [PHA-656810] |
|  | 1 (≈ 2.8 µM) | N#Cc1ccc(NC(=O)c2cccc(Nc3ccccc3)c2)c(C(=O)O)c1 [PHA-610938, 2-[(3-Anilinobenzoyl)amino]-5-cyanobenzoic acid] |
|  | 1 (≈ 2.09 µM) | CN(c1ccc(Cl)cc1)S(=O)(=O)c1cccc(C(=O)Nc2ccc(Cl)cc2C(=O)O)c1 [PHA-615551] |
|  | 1 (≈ 1.99 µM) | O=C(Nc1ccc(Cl)cc1C(=O)O)c1cc(Br)cc(S(=O)(=O)N2CCOCC2)c1 [PHA-662250] |
|  | 1 (≈ 2.32 µM) | N#Cc1ccc(NC(=S)c2cccc(S(=O)(=O)N3CCOCC3)c2)c(C(=O)O)c1 [PHA-662430] |
|  | 1 (≈ 2.41 µM) | N#Cc1ccc(NC(=S)c2cccc(S(=O)(=O)N3CCCC3)c2)c(C(=O)O)c1 [PHA-662431] |
|  | 1 (≈ 1.77 µM) | O=Cc1ccc(NC(=O)c2cc(Br)cc(S(=O)(=O)N3CCc4cc(Cl)ccc43)c2)c(C(=O)O)c1 [PHA-681768] |
|  | 0.5 (≈ 1.12 µM) | N#Cc1ccc(NC(=O)c2cccc(S(=O)(=O)n3cnc4ccccc43)c2)c(C(=O)O)c1 [PHA-630330] |
|  | 0.5 (≈ 1.29 µM) | N#Cc1ccc(NC(=O)c2cccc(SCc3ccccc3)c2)c(C(=O)O)c1 [PHA-630368] |
|  | 0.5 (≈ 1.11 µM) | CN(c1ccccc1N)S(=O)(=O)c1cccc(C(=O)Nc2ccc(C#N)cc2C(=O)O)c1 [PHA-670083] |
|  | 0.25 (≈ 0.475 µM) | N#Cc1ccc(NC(=O)c2cc(Br)cc(S(=O)(=O)N3CCc4ccccc43)c2)c(C(=O)O)c1 [PHA-630965] |
|  | 0.25 (≈ 0.456 µM) | CN(c1ccc(Cl)cc1)S(=O)(=O)c1cc(Br)cc(C(=O)Nc2ccc(C#N)cc2C(=O)O)c1 [PHA-630966] |
|  | 0.25 (≈ 0.415 µM) | CN(c1ccc(Cl)cc1)S(=O)(=O)c1cc(Br)cc(C(=O)Nc2ccc(Br)cc2C(=O)O)c1 [PHA-631082] |
